These results are taken from US5643920A, “Tricyclic compound having anti-allergic activities” (Mochida Pharmaceutical Co., Ltd., priority 1992, dated 1997).

The subject of the first data set is mice. Put plainly: Acute toxicity, oral. The data set is classed as in vivo. The following applies: 1000 mg/kg oral, three mice per group, observed for 7 days. How it is done: To groups of three mice each having a body weight of 20 to 30 g were orally administered 1000 mg/kg of the compounds of Examples 15 and 117 of the present invention.
With `NN=C1CCn2c(-c3ccc(Cl)cc3)nc3cccc1c32` [Example 15, 2-(4-chlorophenyl)-4,5-dihydro-6H-imidazo-[4,5,1-ij]quinolin-6-one hydrazone], the “death within 7 days (acute toxicity)” value is on record as “no mouse was found dead”.

With `NN=C1CCc2c(-c3ccc(Cl)cc3)cn3cccc1c23` [Example 117, 1-(4-chlorophenyl)-8,9-dihydro-7H-pyrrolo-[3,2,1-ij]quinolin-7-one hydrazone], the “death within 7 days (acute toxicity)” value is “no mouse was found dead”.

The test system of another data set is IgE antibody production. Put plainly: Activity to inhibit the IgE antibody production in mice sensitized with egg albumin (ELISA of plasma IgE). Type of data set: in vivo, male BALB/c mice. The following applies: Mus musculus, 240 h; 3 mg/kg/day, oral, once a day for seven times; blood ten days after sensitization; BALB/c mice; read-out: Percentage of the IgE antibody production inhibited. Here is the method:
Groups of five male BALB/c mice (body weight: 20 to 25 g) each were sensitized by intraperitoneally injection with 4 mg of aluminum hydroxide to which absorbed 10 μg of egg albumin. The test compound is suspended in a gum arabic solution, and the suspensions of different concentrations were orally administered to the animals once a day for seven times in total from immediately after the sensitization. The gum arabic suspension having no test compound added was used for the control.
Blood was collected from the animal ten days after the sensitization, and the collected blood was evaluated for the amount of the IgE antibody produced by ELISA. In brief, the plasma sample was added to immobilized anti-mouse igE antibody, and then, reacting with the anti-mouse IgE antibody having labeled with horseradish peroxidase. The amount of the IgE antibody produced was calculated by using the activity of the horseradish peroxidase for the index (See Meneki-to-Shikkan (Immune and Diseases), 15, 211-216, 1988).
In Table 1, there are shown the amount of the test compounds administered and the percentage of the IgE antibody production inhibited calculated by equation 1: [formula]
(ELISA stands for enzyme-linked immunosorbent assay.)
Take `Fc1ccc(-c2cn3cccc4c3c2CCC4)cc1` [Example 99, 8,9-dihydro-1-(4-fluorophenyl)-7H-pyrrolo-[3,2,1-ij]quinoline]: the inhibition at 3 mg/kg came to 43%.

For the compound `Clc1ccc(-c2cn3cccc4c3c2CCC4)cc1` [Example 3, 1-(4-chlorophenyl) -8,9-dihydro-7H-pyrrolo-[3,2,1-ij]quinoline], the inhibition at 3 mg/kg was 64%.

Staying with this data set, now noted: Mus musculus, 240 h; 10 mg/kg/day, oral, once a day for seven times; blood ten days after sensitization; BALB/c mice; read-out: Percentage of the IgE antibody production inhibited.
In the case of `Brc1ccc(-c2cn3cccc4c3c2CCC4)cc1` [Example 100, 1-(4-bromophenyl)-8,9-dihydro-7H-pyrrolo-[3,2,1-ij]quinoline], the inhibition at 10 mg/kg was found to be 77%.

Consider `c1ccc2cc(-c3cn4cccc5c4c3CCC5)ccc2c1` [Example 108, 8,9-dihydro-1-(2-naphthyl)-7H-pyrrolo[3,2,1-ij]quinoline], for which the inhibition at 10 mg/kg came out at 71%.

Consider `Cc1ccc(-c2cn3cccc4c3c2CCC4)cc1` [Example 109, 8,9-dihydro-1-(4-methylphenyl)-7H-pyrrolo-[3,2,1-ij]quinoline], for which the inhibition at 10 mg/kg is 45%.

For the compound `C=C1CCc2c(-c3ccc(Cl)cc3)cn3cccc1c23` [Example 9, 1-(4-chlorophenyl)-8,9-dihydro-7-methylene-7H-pyrrolo[3,2,1-ij]quinoline], the inhibition at 10 mg/kg stood at 65%.

In the case of `NC1CCc2c(-c3ccc(Cl)cc3)cn3cccc1c23` (centres unmarked) [Example 7, 7-amino-1-(4-chlorophenyl)-8,9-dihydro-7H-pyrrolo[3,2,1-ij]quinoline], the inhibition at 10 mg/kg worked out at 49%.

Staying with this data set, now noted: Mus musculus, 240 h; 30 mg/kg/day, oral, once a day for seven times; blood ten days after sensitization; BALB/c mice; read-out: Percentage of the IgE antibody production inhibited.
Consider `NN=C1CCn2c(-c3ccc(Cl)cc3)nc3cccc1c32` [Example 15, 2-(4-chlorophenyl)-4,5-dihydro-6H-imidazo-[4,5,1-ij]quinolin-6-one hydrazone], for which the inhibition at 30 mg/kg amounted to 53%.

For the compound `ON=C1CCn2c(-c3ccccc3)nc3cccc1c32` [Reference Example 30, 2-phenyl-4,5-dihydro-6H-imidazo-[4,5,1-ij]quinolin-6-one oxime], the inhibition at 30 mg/kg turned out to be 32%.

For `CC(C)=NN=C1CCc2c(-c3ccc(Cl)cc3)cn3cccc1c23` [Example 124, 1-(4-chlorophenyl)-8,9-dihydro-7H-pyrrolo-[3,2,1-ij]quinolin-7-one isopropylidenehydrazone], the inhibition at 30 mg/kg is 45%.

For `NN=C1CCc2c(-c3ccc(Cl)cc3)cn3cccc1c23` [Example 117, 1-(4-chlorophenyl)-8,9-dihydro-7H-pyrrolo-[3,2,1-ij]quinolin-7-one hydrazone], the inhibition at 30 mg/kg turned out to be 44%.

On to `NC1CCn2c(-c3ccc(C(F)(F)F)cc3)nc3cccc1c32` (centres unmarked) [Example 71, 6-amino-4,5-dihydro-2-(4-trifluoromethylphenyl)-imidazo[4,5,1-ij]quinoline], for which the inhibition at 30 mg/kg was found to be 78%.

Consider `FC(F)(F)c1ccc(-c2cn3cccc4c3c2CCC4)cc1` [Example 130, 8,9-dihydro-1-(4-trifluoromethylphenyl)-7H-pyrrolo[3,2,1-ij]quinoline], for which the inhibition at 30 mg/kg was determined as 86%.

For the compound `ON=C1CCn2c(-c3ccc4ccccc4c3)nc3cccc1c32` [Reference Example 36, 2-(2-naphthyl)-4,5-dihydro-6H-imidazo[4,5,1-ij]quinolin-6-one oxime], the inhibition at 30 mg/kg was found to be 50%.

In the case of `O=C1CCc2c(-c3ccc(C(F)(F)F)cc3)cn3cccc1c23` [Example 81, 8,9-dihydro-1-(4-trifluoromethylphenyl)-7H-pyrrolo[3,2,1-ij]quinolin-7-one], the inhibition at 30 mg/kg turned out to be 61%.

Take `ON=C1CCn2c(-c3ccc(C(F)(F)F)cc3)nc3cccc1c32` [Reference Example 34, 2-(4-trifluoromethylphenyl)-4,5-dihydro-6H-imidazo[4,5,1-ij]quinolin-6-oneoxime]: the inhibition at 30 mg/kg turned out to be 32%.

On to `CON=C1CCn2c(-c3ccc(Cl)cc3)nc3cccc1c32` [Example 16, 2-(4-chlorophenyl)-4,5-dihydro-6-methoxyimino-6H-imidazo[4,5,1-ij]quinoline], for which the inhibition at 30 mg/kg was 54%.

`ON=C1CCn2c(-c3ccc(Br)cc3)nc3cccc1c32` [Reference Example 33, 2-(4-bromophenyl)-4,5-dihydro-6H-imidazo[4,5,1-ij]quinolin-6-one oxime]: the inhibition at 30 mg/kg was 41%.

With `ON=C1CCc2c(-c3ccc(C(F)(F)F)cc3)cn3cccc1c23` [Example 92, 8,9-dihydro-1-(4-trifluoromethylphenyl)-7H-pyrrolo[3,2,1-ij]quinolin-7-oneoxi], the inhibition at 30 mg/kg was 50%.

Consider `NN=C1CCc2c(-c3ccc(Br)cc3)cn3cccc1c23` [Example 4, 1-(4-bromophenyl)-8,9-dihydro-7H-pyrrolo[3,2,1-ij]quinolin-7-one hydrazone], for which the inhibition at 30 mg/kg was found to be 47%.

Take `NC1CCc2c(-c3ccc(C(F)(F)F)cc3)cn3cccc1c23` (centres unmarked) [Example 132, 7-amino-8,9-dihydro-1-(4-trifluoromethylphenyl)-7H-pyrrolo[3,2,1-ij]quinoline]: the inhibition at 30 mg/kg was 80%.

In another data set the test system is sensitized rat peritoneal cells (histamine release). Briefly: Activity to suppress the histamine release from passively sensitized rat peritoneal cells. Type of data set: cell-based, male Wistar rats. Conditions: 10 min, 1 μg/ml, 2×10^4 sensitized peritoneal cells, egg albumin, ten minutes, read-out: Percentage of the histamine release suppressed. Here is the method: Peritoneal cells were collected from male Wistar rats (9 week-old) killed by exsanguination. The cells were washed by centrifugation, and passively sensitized with rat anti-egg albumin serum. 2×10^4 of the sensitized peritoneal cells (1×10^4 of the sensitized peritoneal cells in the case of the compound of Example 12) were reacted with the solution of the test compound (in 0.1% bovine serum albumin solution in HBSS (Hanks' balanced salt solution) containing 0.1% DMSO). Egg albumin was added as allergen, the reaction was allowed to take place for ten minutes. After the cease of the reaction, the amount of the histamine released was determined by post-column fluorometric assay using high-speed liquid chromatography.
The amount of the test compounds administered and the percentage of the histamine release suppressed calculated by equation 2 are shown in Table 2.
Example 123: 1-(4-chlorophenyl)-8,9-dihydro-7H-pyrrolo-[3,2,1-ij]quinolin-7-one tosylhydrazone. [formula]
`NN=C1CCn2c(-c3ccc(Cl)cc3)nc3cccc1c32` [Example 15, 2-(4-chlorophenyl)-4,5-dihydro-6H-imidazo-[4,5,1-ij]quinolin-6-one hydrazone]: the inhibition at 1 µg/mL was determined as 42%.

Still in this data set, the particulars now being: 10 min, 3 μg/ml, 2×10^4 sensitized peritoneal cells, egg albumin, ten minutes, read-out: Percentage of the histamine release suppressed.
In the case of `Clc1ccc(-c2cn3cccc4c3c2CCC4=NNc2ccccc2)cc1` [Example 119, 1-(4-chlorophenyl)-8,9-dihydro-7H-pyrrolo-[3,2,1-ij]quinolin-7-one phenylhydrazone], the inhibition at 3 µg/mL was found to be 42%.

For the compound `CC(C)=NN=C1CCn2c(-c3ccc(Cl)cc3)nc3cccc1c32` [Example 14, 2-(4-chlorophenyl)-4,5-dihydro-6H-imidazo-[4,5,1-ij]quinolin-6-one isopropylidenehydrazone], the inhibition at 3 µg/mL turned out to be 55%.

As for `Cc1ccc(S(=O)(=O)NN=C2CCc3c(-c4ccc(Cl)cc4)cn4cccc2c34)cc1` [Example 123, 1-(4-chlorophenyl)-8,9-dihydro-7H-pyrrolo-[3,2,1-ij]quinolin-7-one tosylhydrazone], the inhibition at 3 µg/mL turned out to be 33%.

For `Clc1ccc(-c2nc3cccc4c3n2CCC4=NNc2ccccc2)cc1` [Example 17, 2-(4-chlorophenyl)-4,5-dihydro-6H-imidazo-[4,5,1-ij]quinolin-6-one phenylhydrazone], the inhibition at 3 µg/mL came to 40%.

Staying with this data set, now noted: 10 min, 10 μg/ml, 1×10^4 sensitized peritoneal cells (Example 12), egg albumin, ten minutes, read-out: Percentage of the histamine release suppressed.
Regarding `OC1CCn2c(-c3ccc(Cl)cc3)nc3cccc1c32` (centres unmarked) [Example 12, 2-(4-chlorophenyl)-4,5-dihydro-6-hydroxy-6H-imidazo[4,5,1-ij]quinoline], the inhibition at 10 µg/mL was 49%.

Staying with this data set, now noted: 10 min, 10 μg/ml, 2×10^4 sensitized peritoneal cells, egg albumin, ten minutes, read-out: Percentage of the histamine release suppressed.
Consider `CCOC(=O)C(=O)NC1CCc2c(-c3ccc(Cl)cc3)cn3cccc1c23` (centres unmarked) [Example 122, 1-(4-chlorophenyl)-8,9-dihydro-7-ethoxyoxalylamino-7H-pyrrolo[3,2,1-ij]quinoline], for which the inhibition at 10 µg/mL was 98%.

With `NN=C1CCc2c(-c3ccc(Cl)cc3)cn3cccc1c23` [Example 117, 1-(4-chlorophenyl)-8,9-dihydro-7H-pyrrolo-[3,2,1-ij]quinolin-7-one hydrazone], the inhibition at 10 µg/mL was 47%.

In the case of `NN=C1CCc2c(-c3ccc(Br)cc3)cn3cccc1c23` [Example 4, 1-(4-bromophenyl)-8,9-dihydro-7H-pyrrolo[3,2,1-ij]quinolin-7-one hydrazone], the inhibition at 10 µg/mL amounted to 50%.
